The values below are quoted from earlier work in patent US11304951B1 (Janssen Pharmaceutica NV, priority 2020, dated 2022).

As for `CCCCCCCCCCCCCCCC(=O)OC1CCCn2c1nc(C)c(CCN1CCC(c3noc4cc(F)ccc34)CC1)c2=O` (racemic) [paliperidone palmitate, (±)-3-[2-[4-(6-fluoro-1,2-benzisoxazol-3-yl)-1-piperidinyl]ethyl]-6,7,8,9-tetrahydro-2-methyl-4-oxo-4H-pyrido[1,2-c]pyrimidin-9-yl hexadecanoate], the water solubility entry is listed as “extreme low water solubility”.
